In US20130102009A1, “SIRTUIN ACTIVATORS AND ACTIVATION ASSAYS” (priority 2010, published 2013):
Several values for one entry are separate records, joined by “and”; a condition that tells them apart may be missing. Equal entries are not always repeated. Structures can show the parent of a compound that is named as a salt. Where two headings read alike, the source gives them in different places.

Tests used:
SIRT1 [1] = biological target: T1, SIRT1 (Homo sapiens, UniProt Q96EB6); test: Mass spectrometry based SIRT1 activation assay (TAMRA/5TMR-labeled 20mer peptide); type: biochemical; details: for Emax: 25 min, percent maximum fold activation of SIRT1, read-out: % FOLD ACT.; for EC1.5 uM: concentration that results in 150% activation of SIRT1
T1 sequence (Q96EB6 1-747): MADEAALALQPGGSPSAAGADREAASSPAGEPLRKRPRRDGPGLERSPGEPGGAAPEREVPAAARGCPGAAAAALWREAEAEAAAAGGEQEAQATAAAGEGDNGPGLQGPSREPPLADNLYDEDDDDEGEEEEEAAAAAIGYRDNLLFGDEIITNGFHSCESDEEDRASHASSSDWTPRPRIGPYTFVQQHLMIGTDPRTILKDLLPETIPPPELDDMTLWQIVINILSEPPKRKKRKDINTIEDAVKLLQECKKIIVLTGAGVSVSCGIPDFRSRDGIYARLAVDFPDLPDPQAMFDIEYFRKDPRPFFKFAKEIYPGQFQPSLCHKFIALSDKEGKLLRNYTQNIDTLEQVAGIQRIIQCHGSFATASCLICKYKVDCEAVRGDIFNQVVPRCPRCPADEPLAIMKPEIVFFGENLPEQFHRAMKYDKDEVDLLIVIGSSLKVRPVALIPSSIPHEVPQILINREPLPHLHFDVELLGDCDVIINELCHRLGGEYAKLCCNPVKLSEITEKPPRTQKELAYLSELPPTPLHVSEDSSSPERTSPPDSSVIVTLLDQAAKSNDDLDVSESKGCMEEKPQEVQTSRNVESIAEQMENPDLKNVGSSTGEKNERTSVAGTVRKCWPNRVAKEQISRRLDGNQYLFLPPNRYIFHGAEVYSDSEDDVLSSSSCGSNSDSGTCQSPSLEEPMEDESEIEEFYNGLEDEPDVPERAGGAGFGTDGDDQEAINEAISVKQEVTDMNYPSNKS
How it was run: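 N-terminal His-tagged human SIRT1 from E. coli BL21(DE3), 10 nM, incubated 25 min at 25° C with 0.5 μM biotin/5TMR-labeled acetylated p53-derived 20mer peptide and 120 μM βNAD+ in Tris-acetate pH 8 buffer with DTT and BSA. Formic acid stop; MS quantifies acetylated vs deacetylated peptide. EC1.5 = concentration giving 150% activation.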

SIRT1 [2] = biological target: T1, SIRT1; test: Fits of SIRT1 activation data (TAMRA-peptide) to kinetic models: Michaelis-Menten, eq (5), eq (9); type: biochemical; details: for Vmax,app: data of Milne et al. fit to Michaelis-Menten equation
Description: The rate law for the mechanism of FIG. 2A can be derived starting with the expression of eq (4), which was derived using the rapid equilibrium assumption. To express the rate law in terms of total and free substrate, eq (4) can be […] show in eq (5). This derivation will be complete if we can express [S] in terms of [S]o, [X]o, and Kd. This starts with the definition of Kd, given in eq (6): The rate law for the mechanism of FIG. 2B can be derived using the rapid equilibrium assumption and is given in eq (9). […] To determine if the mechanism of FIG. 2A could accommodate such an activator, we fit the activation titration curve reported in Milne et al. ((2007) Nature 450, 712-716) to the expression of eq (5). This curve is reproduced in FIG. 7A. […] In this fitting, the following constraints were used: […] If the mechanism of FIG. 2A obtains for SRT1460, parameter estimates from the two types of experiment must be the same. […] Enzyme allostery can account for the activation of the SIRT1-Catalyzed deacetylation of TAMRA-Peptide by SRT1460 When the rate law for the allosteric mechanism of activation, is used to fit the data of FIG. 7B the following best-fit parameters are obtained: Kx=8.7±0.8 μM, β=0.26±0.02, and γ=1.48±0.04. The lines drawn using eq (9) and these parameters show an excellent fit to the data. These lines superimpose on those drawn from the individual fits and the parameter estimates of Table 5.

Compound	Emax (SIRT1 [1]) [%]	EC1.5 uM (SIRT1 [1])	γ, best fit of activator titration curve to eq (5) (indirect mechanism of FIG. 2A) (SIRT1 [2]; [S]o and Km constrained)	other results
CN(C)CCCNc1cc(-c2nc3c(NC(=O)c4ccc(CN5CCNCC5)cc4)cccc3[nH]2)ccn1 [Compound 14, N-(2-(2-(3-(dimethylamino)propylamino)pyridin-4-yl)-1H-benzo[d]imidazol-4-yl)-4-(piperazin-1-ylmethyl)benzamide trihydrochloride]	≥ 200	A (EC1.5≦1 μM)	–	–
CCCCc1nc(NC2CCNCC2)cc(C(=O)Nc2ccccc2-c2nc3cc(COC4CCNCC4)cnc3s2)n1 [Compound 10, 2-butyl-6-(piperidin-4-ylamino)-N-(2-(6-((piperidin-4-yloxy)methyl)thiazolo[5,4-b]pyridin-2-yl)phenyl)pyrimidine-4-carboxamide]	≥ 200	A (EC1.5≦1 μM)	0.69±0.08	–
COc1cc(C(=O)Nc2ccccc2-c2cn3c(CN4CCNCC4)csc3n2)cc(OC)c1OC [SRT1460]	–	–	0.20 and 0.20 ± 0.01	γ, global fit of velocity vs substrate data at fixed activator concentrations (FIG. 7B) to eq (5) (SIRT1 [2]; Kd assigned 140 μM, data of Milne et al.): 1.53±0.07 and 1.53; Km (SIRT1 [2]; Kd assigned 140 μM, data of Milne et al., read-out: Km,x, global fit of velocity vs substrate data at fixed activator concentrations (FIG. 7B) to eq (5)): 1 ± 0.1 µM; Km (SIRT1 [2]; Kd, [S]o and Km constrained, read-out: Km,x, best fit of activator titration curve to eq (5) (indirect mechanism of FIG. 2A)): 0.09 µM; Vmax,app (SIRT1 [2]; [SRT1460] 3 μM): 11 units; Vmax,app (SIRT1 [2]; [SRT1460] 11 μM): 12 units; Vmax,app (SIRT1 [2]; [SRT1460] 37 μM): 14 units; Km (SIRT1 [2]; [S]o and Km constrained, read-out: Km,x, best fit of activator titration curve to eq (5) (indirect mechanism of FIG. 2A)): 0.09 µM; Kx, best fit of FIG. 7B data to allosteric rate law eq (9) (SIRT1 [2]; data of Milne et al.): 8.7 ± 0.8 µM; β, best fit of FIG. 7B data to allosteric rate law eq (9) (SIRT1 [2]; data of Milne et al.): 0.26±0.02; γ, best fit of FIG. 7B data to allosteric rate law eq (9) (SIRT1 [2]; data of Milne et al.): 1.48±0.04
CN(C)Cc1cnc2sc(-c3ccccc3NC(=O)c3cnc4ccccc4n3)nc2c1 [Compound 2, N-(2-(6-((dimethylamino)methyl)thiazolo[5,4-b]pyridin-2-yl)phenyl)quinoxaline-2-carboxamide]	< 200	B (EC1.5>1 μM)	–	–
Cc1nc(-c2cccnc2)sc1C(=O)Nc1ccccc1-c1cn2c(CN3CC4CC3CN4)csc2n1 (centres unmarked) [Compound 4, N-(2-(3-(2,5-diazabicyclo[2.2.1]heptan-2-ylmethyl)imidazo[2,1-b]thiazol-6-yl)phenyl)-4-methyl-2-(pyridin-3-yl)thiazole-5-carboxamide]	≥ 200	A (EC1.5≦1 μM)	–	–
